According to ChEMBL document CHEMBL1154822, “Synthesis and antiproliferative activity of 7-azaindirubin-3'-oxime, a 7-aza isostere of the natural indirubin pharmacophore” (J Nat Prod, 2009):

Tests used:
Format in all cases: functional
SK-MEL-28 = experiment: Cytotoxicity against human SK-MEL-28 cells assessed as cell growth at 1 mM after 1 to 11 days by MTT assay; conditions: read-out: Activity
DU-145 = experiment: Cytotoxicity against human DU145 cells assessed as cell growth at 1 uM after 1 to 11 days by MTT assay; conditions: read-out: Activity
NCI-H460 [1] = experiment: Cytotoxicity against human NCI-H460 cells assessed as cell growth at 10 uM after 1 to 11 days by MTT assay; conditions: read-out: Activity
COLO 205 = experiment: Cytotoxicity against human COLO205 cells assessed as cell growth at 10 uM after 1 to 11 days by MTT assay; conditions: read-out: Activity
MDA-MB-468 = experiment: Cytotoxicity against human MDA-MB-468 cells assessed as cell growth at 1 mM after 1 to 11 days by MTT assay; conditions: read-out: Activity
NCI-H460 [2] = experiment: Cytotoxicity against human NCI-H460 cells assessed as cell growth at 0.1 uM after 1 to 11 days by MTT assay; conditions: read-out: Activity
SR = experiment: Cytotoxicity against human SR cells assessed as cell growth at 10 uM after 1 to 11 days by MTT assay; conditions: read-out: Activity
K562 [3] = experiment: Cytotoxicity against human K562 cells assessed as cell growth at 0.1 uM after 1 to 11 days by MTT assay; conditions: read-out: Activity
NCI-H23 [4] = experiment: Cytotoxicity against human NCI-H23 cells after 1 to 11 days by MTT assay
SK-MEL-5 = experiment: Cytotoxicity against human SK-MEL-5 cells assessed as cell growth at 1 uM after 1 to 11 days by MTT assay; conditions: read-out: Activity
SF-539 [5] = experiment: Cytotoxicity against human SF539 cells assessed as cell growth at 1 mM after 1 to 11 days by MTT assay; conditions: read-out: Activity
NCI-H522 [6] = experiment: Cytotoxicity against human NCI-H522 cells after 1 to 11 days by MTT assay
IGROV-1 = experiment: Cytotoxicity against human IGROV1 cells assessed as cell growth at 100 uM after 1 to 11 days by MTT assay; conditions: read-out: Activity
MDA-MB-231 [7] = experiment: Cytotoxicity against human MDA-MB-231 cells assessed as cell growth at 10 uM after 1 to 11 days by MTT assay; conditions: read-out: Activity
RXF 393 = experiment: Cytotoxicity against human […] cells assessed as cell growth at 1 uM after 1 to 11 days by MTT assay; conditions: read-out: Activity
OVCAR-4 = experiment: Cytotoxicity against human OVCAR4 cells assessed as cell growth at 1 mM after 1 to 11 days by MTT assay; conditions: read-out: Activity
MOLT-4 = experiment: Cytotoxicity against human MOLT4 cells assessed as cell growth at 10 uM after 1 to 11 days by MTT assay; conditions: read-out: Activity
SK-OV-3 = experiment: Cytotoxicity against human SKOV3 cells assessed as cell growth at 0.1 uM after 1 to 11 days by MTT assay; conditions: read-out: Activity
MDA-MB-231 [8] = experiment: Cytotoxicity against human MDA-MB-231 cells assessed as cell growth at 100 uM after 1 to 11 days by MTT assay; conditions: read-out: Activity
UACC-62 = experiment: Cytotoxicity against human UACC62 cells assessed as cell growth at 1 uM after 1 to 11 days by MTT assay; conditions: read-out: Activity
NCI-H23 [9] = experiment: Cytotoxicity against human NCI-H23 cells assessed as cell growth at 1 uM after 1 to 11 days by MTT assay; conditions: read-out: Activity
SF-539 [10] = experiment: Cytotoxicity against human SF539 cells after 1 to 11 days by MTT assay
Malme-3M = experiment: Cytotoxicity against human MALME-3M cells assessed as cell growth at 10 uM after 1 to 11 days by MTT assay; conditions: read-out: Activity
NCI-H460 [11] = experiment: Cytotoxicity against human NCI-H460 cells assessed as cell growth at 100 uM after 1 to 11 days by MTT assay; conditions: read-out: Activity
ACHN = experiment: Cytotoxicity against human ACHN cells assessed as cell growth at 0.1 uM after 1 to 11 days by MTT assay; conditions: read-out: Activity
HCC 2998 [12] = experiment: Cytotoxicity against human HCC2998 cells assessed as cell growth at 0.1 uM after 1 to 11 days by MTT assay; conditions: read-out: Activity
MCF7 = experiment: Cytotoxicity against human MCF7 cells assessed as cell growth at 10 uM after 1 to 11 days by MTT assay; conditions: read-out: Activity
K562 [13] = experiment: Cytotoxicity against human K562 cells assessed as cell growth at 100 uM after 1 to 11 days by MTT assay; conditions: read-out: Activity
NCI/ADR-RES [14] = experiment: Cytotoxicity against human NCI/ADR-RES cells assessed as cell growth at 0.1 uM after 1 to 11 days by MTT assay; conditions: read-out: Activity
HOP-92 [15] = experiment: Cytotoxicity against human HOP92 cells assessed as cell growth at 100 uM after 1 to 11 days by MTT assay; conditions: read-out: Activity
NCI-H522 [16] = experiment: Cytotoxicity against human NCI-H522 cells assessed as cell growth at 0.1 uM after 1 to 11 days by MTT assay; conditions: read-out: Activity
NCI/ADR-RES [17] = experiment: Cytotoxicity against human NCI/ADR-RES cells assessed as cell growth at 1 mM after 1 to 11 days by MTT assay; conditions: read-out: Activity
PC-3 = experiment: Cytotoxicity against human PC3 cells assessed as cell growth at 1 uM after 1 to 11 days by MTT assay; conditions: read-out: Activity
[18] = Cytotoxicity against human Hs 578T cells assessed as cell growth at 1 mM after 1 to 11 days by MTT assay; conditions: read-out: Activity
HCC 2998 [19] = experiment: Cytotoxicity against human HCC2998 cells after 1 to 11 days by MTT assay
SN12C = experiment: Cytotoxicity against human SN12C cells assessed as cell growth at 1 mM after 1 to 11 days by MTT assay; conditions: read-out: Activity
NCI-H226 = experiment: Cytotoxicity against human NCI-H226 cells after 1 to 11 days by MTT assay
HCC 2998 [20] = experiment: Cytotoxicity against human HCC2998 cells assessed as cell growth at 10 uM after 1 to 11 days by MTT assay; conditions: read-out: Activity
U-251 = experiment: Cytotoxicity against human U251 cells assessed as cell growth at 0.1 uM after 1 to 11 days by MTT assay; conditions: read-out: Activity
NCI-H23 [21] = experiment: Cytotoxicity against human NCI-H23 cells assessed as cell growth at 100 uM after 1 to 11 days by MTT assay; conditions: read-out: Activity
786-0 = experiment: Cytotoxicity against human 786-0 cells after 1 to 11 days by MTT assay
OVCAR-3 = experiment: Cytotoxicity against human OVCAR-3 cells assessed as cell growth at 100 uM after 1 to 11 days by MTT assay; conditions: read-out: Activity
SNB-75 = experiment: Cytotoxicity against human SNB75 cells assessed as cell growth at 100 uM after 1 to 11 days by MTT assay; conditions: read-out: Activity
HOP-92 [22] = experiment: Cytotoxicity against human HOP92 cells assessed as cell growth at 1 mM after 1 to 11 days by MTT assay; conditions: read-out: Activity
[23] = read-out: LC50 (the source's name)

O=C1Nc2ncccc2/C1=C1/Nc2ccccc2/C1=N\O
growth at 1000 µM (SK-MEL-28): 47%
growth at 1 µM (DU-145): 102%
growth at 10 µM (NCI-H460 [1]): 97%
growth at 10 µM (COLO 205): 84%
growth at 1000 µM (MDA-MB-468): 13%
growth at 0.1 µM (NCI-H460 [2]): 110%
growth at 10 µM (SR): 147%
growth at 0.1 µM (K562 [3]): 88%
GI50 (NCI-H23 [4]): > 100 µM
TGI (NCI-H23 [4]): > 100 µM
CC50 (NCI-H23 [4]; [23]): > 100 µM
growth at 1 µM (SK-MEL-5): 98%
growth at 1000 µM (SF-539 [5]): 52%
GI50 (NCI-H522 [6]): > 100 µM
TGI (NCI-H522 [6]): > 100 µM
CC50 (NCI-H522 [6]; [23]): > 100 µM
growth at 100 µM (IGROV-1): 13%
growth at 10 µM (MDA-MB-231 [7]): 76%
growth at 1 µM (RXF 393): 94%
growth at 1000 µM (OVCAR-4): 39%
growth at 10 µM (MOLT-4): 70%
growth at 0.1 µM (SK-OV-3): 100%
growth at 100 µM (MDA-MB-231 [8]): 40%
growth at 1 µM (UACC-62): 88%
growth at 1 µM (NCI-H23 [9]): 90%
GI50 (SF-539 [10]): > 100 µM
TGI (SF-539 [10]): > 100 µM
CC50 (SF-539 [10]; [23]): > 100 µM
growth at 10 µM (Malme-3M): 91%
growth at 100 µM (NCI-H460 [11]): 41%
growth at 0.1 µM (ACHN): 102%
growth at 0.1 µM (HCC 2998 [12]): 93%
growth at 10 µM (MCF7): 86%
growth at 100 µM (K562 [13]): 39%
growth at 0.1 µM (NCI/ADR-RES [14]): 99%
growth at 100 µM (HOP-92 [15]): 36%
growth at 0.1 µM (NCI-H522 [16]): 100%
growth at 1000 µM (NCI/ADR-RES [17]): 55%
growth at 1 µM (PC-3): 83%
growth at 1000 µM [18]: 31%
GI50 (HCC 2998 [19]): 5.96 µM
TGI (HCC 2998 [19]): > 100 µM
CC50 (HCC 2998 [19]; [23]): > 100 µM
growth at 1000 µM (SN12C): 36%
GI50 (NCI-H226): 1.14 µM
TGI (NCI-H226): > 100 µM
CC50 (NCI-H226; [23]): > 100 µM
growth at 10 µM (HCC 2998 [20]): 88%
growth at 0.1 µM (U-251): 97%
growth at 100 µM (NCI-H23 [21]): 55%
GI50 (786-0): 7.46 µM
CC50 (786-0; [23]): > 100 µM
growth at 100 µM (OVCAR-3): 51%
growth at 100 µM (SNB-75): 14%
growth at 1000 µM (HOP-92 [22]): 44%
